Measured values taken from US6451361B1, “Alkali metal magnesium phosphate hydrate buffering feed mineral” (Agri-Nutrients Technology Group, Inc., priority 2001, dated 2002).
Like-named read-outs stand apart in the source and are kept apart here.

Experiments:
[1] = tested on: rumen juices of a ruminant animal; settings: steer, 50 lbs/day ration, three days on ration
Description: A ruminating steer weighing about 1100 pounds which had been fistulated so that rumen fluid samples could be withdrawn as desired for pH measurement was used in experiments in which the steer was fed a constant high energy ration typical of a finishing feedlot ration. The only change in the rations were in the types and amounts of buffering agent used. The buffering agents were blended into the feed ration prior to its use. The fistulated steer received the same buffered feed ration for three days prior to sampling the rumen fluid and determining pH.

[2] = Buffer capacity by titration to pH 6 with 0.1N hydrochloric acid; assay type: physicochemical
Description: (§1) The example compares performance of compositions of the instant invention with sodium bicarbonate, with regard to original pH, and amount of acid buffered to pH 6. One gram of buffering agent was mixed with 100 grams water and titrated to pH 6 by 0.1N hydrochloric acid.

[3] = pH of buffering agent in water; assay type: physicochemical
Description: Materials frequently used in the art to buffer digestive fluids are sodium bicarbonate and magnesium oxide. […] Over-treatment with buffer may be caused by errors in estimates of animal size, and the composition of the digestive fluid and by errors in measuring the amounts of the buffering material.
as §1

[4] = tested on: newly hatched broiler chicks; experiment: 21-day broiler chick feeding test of phosphorus bioavailability and weight gain; assay type: in vivo; settings: 21 days
Procedure: The tests were conducted at a University Test Facility starting with newly hatched broiler chicks. The test was carried out over a 21-day period. Weight gain was measured in each group of 10 chicks. Also measured at the end of the test were weight gain/weight of feed, weight percent ash in the tibia, and the relative bioavailability.
Measurements were made comparing the results obtained with the test material and the Standard NRC technical grade hydrous dibasic calcium phosphate.

| Molecule | pH of Rumen Sample ([1]; buffer amount 0.5/1.00 lbs/%) | pH of Rumen Sample ([1]; buffer amount 0.8/1.60 lbs/%) | Buffer Capacity m.eg. of HCl brought to pH per gram compound ([2]; 1 gram in 100 grams water, titrated to pH 6 by 0.1N hydrochloric acid) | speed of changes in pH when combined with aqueous acid ([2]; during titration with 0.1N hydrochloric acid) | pH of Buffer 5% in H2O [3] | Ash Content of Tibia, Wt % ([4]; Added P in feed 0.15 Wt %) | Avg. Wt. Gain, Gms ([4]; Added P in feed 0.15 Wt %) | Wt. Gain, gms per grm feed ([4]; Added P in feed 0.15 Wt %) | Ash Content of Tibia, Wt % ([4]; Added P in feed 0.25 Wt %) | Avg. Wt. Gain, Gms ([4]; Added P in feed 0.25 Wt %) | Wt. Gain, gms per grm feed ([4]; Added P in feed 0.25 Wt %) | Ash Content of Tibia, Wt % ([4]; Added P in feed 0.35 Wt %) | Avg. Wt. Gain, Gms ([4]; Added P in feed 0.35 Wt %) | Wt. Gain, gms per grm feed ([4]; Added P in feed 0.35 Wt %) |
| --- | --- | --- | --- | --- | --- | --- | --- | --- | --- | --- | --- | --- | --- | --- |
| O=C([O-])O.[Na+] [NaHCO3, sodium bicarbonate] | 6.7 | 7.4 | 10.0 m.eg. of HCl per gram compound | about instant | 9.0 |  |  |  |  |  |  |  |  |  |
| hydrous dibasic calcium phosphate [Standard Phosphorus Source] |  |  |  |  |  | 40.5 Wt % | 639.6 Gms | 0.688 gms per grm feed | 41.5 Wt % | 664.6 Gms | 0.725 gms per grm feed | 42.5 Wt % | 667.7 Gms | 0.722 gms per grm feed |
